Experimental data from patent publication US20180015051A1, “MODULATORS OF ALPHA-DICARBONYL DETOXIFICATION AND THEIR USE FOR THE TREATMENT OF DIABETIC PATHOLOGIES” (Buck Institute for Research on Aging, priority 2016, published 2018).

Key:
[1] = tested on: SKN-1/Nrf2; experiment: SKN-1 activation assay (GFP reporters for SKN-1, gst-4, gcs-1; qPCR); assay type: in vivo, Caenorhabditis elegans; conditions: for Expression of gst-4 (GFP foci) under trpa-1 knockdown: glod-4;gst-4p::gfp animals, PA or LA (20 pM); for SKN-1 activation (GFP foci in gst-4p::gfp): gst-4p::gfp animals on EV or glod-4 RNAi, PA, LA, or UMP (20 pM)
Procedure: Adult animals were examined for SKN-1/Nrf2 activation using GFP reporters for both SKN-1 and SKN-1 target genes: gst-4 and gcs-1. For exogenous MGO and drug assays, age-synchronized GFP reporter strains were subject to control and treatment conditions for a period of 4-6 hours before microscopy. For RNAi-induced activation studies, GFP reporter strains were fed on HT1115 bacteria expressing empty vector pL4440 or RNAi gene from L1 stage. Synchronized day 1 adult animals were then subjected to microscopic examination. Activation of SKN-1 using SKN-1 fusion reporter was determined as described earlier (An et al. (2003) Genes & Dev. 17: 1882-1893; Onken and Driscoll (2010) PloS One, 5: e8758). Scoring for downstream SKN-1 targets carrying GFP reporter for gcs-1 promoter was performed based on a previous study (Wang et al. (2010) PLoS Genetics, doi. org/10.1371/journal.pgen.1001048) and categorized as follows: ‘high’ for strong GFP signal throughout the intestine, ‘medium’ for GFP signal in the anterior or posterior section of the intestine and ‘low’ for weak or no signal. For animals with gst-4 promoters carrying GFP reporters number of GST-4 positive foci was counted under different conditions as described previously (Fensgardet al. (2010) Aging, 2: 133-159). Quantification of acquired images was done using the Image J™ software (//imagej.nih.gov/ij/).
Total RNA was extracted from nearly 100 age-synchronized adult animals picked and collected in 20 pl of M9 buffer using TRIzol reagent (Life Technologies, CA). Subsequently, 1 pg total RNA was used as template for cDNA synthesis. cDNA was synthesized using the ISCRIPT™ cDNA synthesis kit (Bio-Rad, CA) following manufacturer's protocol. qRT-PCR was carried out using the SensiFAST SYBR No-ROX kit (Bioline, MA) in a LightCycler 480 Real-Time PCR system (Roche Diagnostics Corp., IN). Quantification was performed using the comparative AACt method and normalization for internal reference was done using actin gene act-1.

[2] = biological target: T1, TRPA-1^E1018A (Ca^2+ impermeable) mutant channel (Caenorhabditis elegans, UniProt Q18297, E1018A); experiment: Ca2+ flux-based channel study in C. elegans (intestinal GCaMP1.3), TRPA-1^E1018A mutant channel; assay type: in vivo; conditions: Ca^+2-impermeable TRPA-1^E1018A channel; for Ca2+ flux (percentage change in peak GCaMP1.3 fluorescence intensity): PA or LA (20 pM)
T1 construct: expressed in transfected cells; host or cells: transgenic C. elegans (strain TQ2772), ges-1 promoter (intestine), trpa-1(ok999) background, with GCaMP1.3
T1 sequence (Q18297 whole entry E1018A): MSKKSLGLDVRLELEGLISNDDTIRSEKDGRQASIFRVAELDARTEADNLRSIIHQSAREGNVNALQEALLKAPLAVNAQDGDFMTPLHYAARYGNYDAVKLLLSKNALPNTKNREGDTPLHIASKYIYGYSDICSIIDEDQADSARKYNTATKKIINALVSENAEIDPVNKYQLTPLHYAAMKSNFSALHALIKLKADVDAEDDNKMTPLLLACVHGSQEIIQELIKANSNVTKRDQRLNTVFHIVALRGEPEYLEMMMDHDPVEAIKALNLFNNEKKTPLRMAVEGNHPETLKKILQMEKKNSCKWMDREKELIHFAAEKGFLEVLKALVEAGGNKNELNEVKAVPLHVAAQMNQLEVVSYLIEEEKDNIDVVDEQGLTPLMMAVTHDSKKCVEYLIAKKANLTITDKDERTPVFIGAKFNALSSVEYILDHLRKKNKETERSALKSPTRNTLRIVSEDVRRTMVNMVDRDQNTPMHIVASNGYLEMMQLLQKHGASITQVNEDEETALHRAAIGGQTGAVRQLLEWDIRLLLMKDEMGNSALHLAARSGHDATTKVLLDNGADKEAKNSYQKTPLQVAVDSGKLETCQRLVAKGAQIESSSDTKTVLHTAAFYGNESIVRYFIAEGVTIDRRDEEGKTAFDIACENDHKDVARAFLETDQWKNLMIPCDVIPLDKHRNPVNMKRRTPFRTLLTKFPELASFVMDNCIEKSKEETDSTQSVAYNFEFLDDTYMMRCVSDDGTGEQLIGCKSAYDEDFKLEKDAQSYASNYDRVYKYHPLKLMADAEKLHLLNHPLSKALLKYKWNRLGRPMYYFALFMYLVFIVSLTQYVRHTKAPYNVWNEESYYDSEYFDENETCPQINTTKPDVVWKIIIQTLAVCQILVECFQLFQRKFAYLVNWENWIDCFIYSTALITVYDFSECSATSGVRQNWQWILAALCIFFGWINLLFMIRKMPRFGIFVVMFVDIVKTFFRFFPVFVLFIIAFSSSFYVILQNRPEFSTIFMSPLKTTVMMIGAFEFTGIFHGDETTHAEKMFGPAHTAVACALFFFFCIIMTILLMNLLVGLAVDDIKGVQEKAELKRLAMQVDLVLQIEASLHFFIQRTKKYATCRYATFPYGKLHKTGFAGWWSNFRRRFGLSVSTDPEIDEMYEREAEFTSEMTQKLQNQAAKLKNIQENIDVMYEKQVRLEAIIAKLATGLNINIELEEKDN
Procedure: (§1) Ca^2+ flux was measured using an upright Olympus compound microscope (BX51) under a 40× objective. Real time sequential G-CaMP1.3 fluorescent images were captured using Hamamatsu Ocra-ER digital CCD camera at a frame rate of 10 frames per second and for a span of 300 frames. Acquired images were analyzed for further intensity measurements using HC Image software v. 1.1.3.0 (Hamamatsu Corp., NJ). Percentage change in fluorescent peak intensity was estimated using the intensity values generated real time by the program.

[3] = biological target: T2, TRPA-1 (Caenorhabditis elegans, UniProt Q18297); experiment: Ca2+ flux-based channel study in C. elegans (intestinal GCaMP1.3), wild-type TRPA-1; assay type: in vivo; conditions: for Ca2+ flux (percentage change in peak GCaMP1.3 fluorescence intensity): wild-type TRPA-1, PA or LA (20 pM)
T2 construct: TQ3056: XuIs180[plfe2b::GCaMP1.3+plfe-2b::dsred];N2; endogenous in cells; host or cells: whole C. elegans animals, N2 background with intestinal GCaMP1.3 (strain TQ3056)
T2 sequence (Q18297 1-1211): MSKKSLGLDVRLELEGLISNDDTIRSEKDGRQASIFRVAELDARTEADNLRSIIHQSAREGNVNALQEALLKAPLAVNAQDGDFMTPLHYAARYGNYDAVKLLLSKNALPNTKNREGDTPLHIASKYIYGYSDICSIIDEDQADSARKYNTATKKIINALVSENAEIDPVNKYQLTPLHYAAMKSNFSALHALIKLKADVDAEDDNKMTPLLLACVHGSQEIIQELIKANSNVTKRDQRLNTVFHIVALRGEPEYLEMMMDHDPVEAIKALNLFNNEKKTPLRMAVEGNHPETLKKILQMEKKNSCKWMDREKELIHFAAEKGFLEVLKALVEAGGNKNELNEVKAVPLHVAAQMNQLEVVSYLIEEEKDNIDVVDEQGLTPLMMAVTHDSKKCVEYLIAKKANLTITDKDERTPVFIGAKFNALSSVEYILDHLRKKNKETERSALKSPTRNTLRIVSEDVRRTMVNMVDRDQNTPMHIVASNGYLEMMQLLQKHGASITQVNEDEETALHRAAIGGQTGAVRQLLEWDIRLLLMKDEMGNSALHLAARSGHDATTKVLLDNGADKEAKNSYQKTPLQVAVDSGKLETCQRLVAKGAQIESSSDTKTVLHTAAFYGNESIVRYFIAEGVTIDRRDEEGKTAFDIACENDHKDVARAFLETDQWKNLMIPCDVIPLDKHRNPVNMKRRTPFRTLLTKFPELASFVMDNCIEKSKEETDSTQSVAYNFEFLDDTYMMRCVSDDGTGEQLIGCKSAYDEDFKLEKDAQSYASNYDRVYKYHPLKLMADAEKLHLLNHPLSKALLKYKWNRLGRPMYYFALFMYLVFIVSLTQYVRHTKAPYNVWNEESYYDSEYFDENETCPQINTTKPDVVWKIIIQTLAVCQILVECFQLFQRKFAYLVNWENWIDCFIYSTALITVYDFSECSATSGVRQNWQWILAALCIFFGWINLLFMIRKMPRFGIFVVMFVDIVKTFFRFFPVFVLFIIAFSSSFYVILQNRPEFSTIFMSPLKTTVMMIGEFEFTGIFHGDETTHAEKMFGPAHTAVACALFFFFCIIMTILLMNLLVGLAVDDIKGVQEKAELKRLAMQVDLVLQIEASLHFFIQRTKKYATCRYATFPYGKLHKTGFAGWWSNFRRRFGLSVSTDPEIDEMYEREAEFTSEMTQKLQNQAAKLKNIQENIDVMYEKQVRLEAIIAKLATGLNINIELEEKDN
Procedure: as §1

[4] = tested on: C. elegans; experiment: Lifespan assay (survival curves); assay type: in vivo, Caenorhabditis elegans; conditions: for Lifespan / early mortality (survival curves): glod-4 mutant animals, PA, LA, or UMP (20 pM) vs EtOH control
Procedure: Life span assays were performed in Thermo Scientific Precision incubators at 20° C. After alkaline hypochlorite treatment, synchronized L1 animals were either placed onto NGM plates seeded with 5× concentrated E. coli OP50-1 (cultured on Lysogeny Broth/LB overnight) or on RNAi plates supplemented with 20×HT1115 RNAi bacteria. Post-L4 stage of development, all lifespan assays were performed using FUdR (5-fluoro-2 deoxyuridine) plates to inhibit development and growth of progeny. Every two days, animals were transferred on to new 60 mm NGM or RNAi plates freshly seeded with OP50-1 or HT1115 bacteria (with or without drug), respectively. 90-120 animals were considered for each lifespan experiment. Animal viability was assessed visually or with gentle prodding on the head. Animals were censored in the event of internal hatching of the larvae, body rupture, or crawling of larvae from the plates.

Row | SMILES | Expression of gst-4 (GFP foci) under trpa-1 knockdown ([1]; trpa-1 RNAi) | SKN-1 activation (GFP foci in gst-4p::gfp) [1] | Ca2+ flux (percentage change in peak GCaMP1.3 fluorescence intensity) [2] | Ca2+ flux (percentage change in peak GCaMP1.3 fluorescence intensity) [3] | Lifespan / early mortality (survival curves) [4] | SKN-1 nuclear localization (SKN-1::GFP) ([1]; 7 mM MGO vs water) | Expression of SKN-1 reporters gst-4 and gcs-1 on trpa-1 knockdown ([1]; MGO-treated wild-type animals, 7 mM MGO, trpa-1 RNAi) | SKN-1/Nrf2 activation (gst-4 and gcs-1, GFP reporter and RT-PCR) ([1]; exogenous MGO treatment, 7 mM vs water) | Ca2+ response (G-CaMP1.3 sensor) ([2]; 7 mM MGO) | Ca2+ response (G-CaMP1.3 sensor) ([3]; functional (wild-type) TRPA-1 channel, 7 mM MGO vs water) | Lifespan (survival curves) ([4]; N2 animals, 7 mM MGO vs water)
1 | O=C(O)CCCCC1CCSS1 (stereo not shown) [LA, a-lipoic acid] | significantly reduced to wild-type levels | SKN-1 activation was observed | significantly reduced | robust Ca+^2 flux | performed similar to PA |  |  |  |  |  | 
2 | CC(=O)C=O [MGO, methylglyoxal] |  |  |  |  |  | undergo nuclear localization | significantly reduced | significant SKN-1/Nrf2 activation | basal responses | robust Ca^2+ response | early mortality
3 | C[C@]1(C(=O)O)CCC[C@]2(C)c3cc(O)ccc3CC[C@@H]12 [PA, podocarpic acid] | significantly reduced to wild-type levels | activates SKN-1 | significantly reduced | robust Ca+^2 flux | able to prevent |  |  |  |  |  | 
